{"source": "paper PMC8851282", "about": "“Senolysis induced by 25-hydroxycholesterol targets CRYAB in multiple cell types” (iScience, 2022)", "key": {"SCs": {"test_system": "SCs", "assay": "Cell viability assay (cell counting kit-8) of senescent and non-senescent SCs treated with inhibitors", "assay_type": "cell-based, mouse", "procedure": "(§1) Figure 3 25HC is a senolytic in multiple muscle cell types (A) Targets, compounds, and mechanisms. (B) Timeline of cell viability assay with inhibitors. Cells were pre-cultured for 24 h, treated with Doxo for 24 h, and then treated with inhibitors. Cell viability was analyzed from day 0–7. (C–E) Effects of inhibitors on viability of FAPs, SCs, and HSMMs. Cells were treated with inhibitors at the indicated concentrations. Cell viability was analyzed on day 3 (HSMMs) or 5 (FAPs and SCs). Blue and red dots indicate non-senescent (NS) and senescent (SEN), respectively. The average value at 0 μM for each group was set at 100% cell viability. p values versus NS were obtained using unpaired two-tailed Student’s t test. ∗p < 0.05, ∗∗p < 0.01, and ∗∗∗p < 0.001.\nFigure 4 EC50 fitted curves (triplicates) of inhibitor effects at 3 and 7 days in FAPS and SCs EC50 was defined as the concentration of inhibitors that provokes a response halfway between baseline and maximum senolytic activity. EC50 values were determined by four- parameter logistic modeling using GraphPad Prism 8.0.\nHind limb muscles were digested in DMEM containing 0.5% (w/v) collagenase type II (Worthington) for 90 min at 37 °C with trituration and passed through a 40-μm nylon mesh. Erythrocytes were eliminated by treating with BD Pharm Lyse (BD Biosciences). Cells were resuspended in a washing buffer of PBS with 2% FBS and stained with antibodies for 30 min at 4 °C as described ([Kamizaki et al., 2017]). FAPs and SCs were isolated from the suspension by FACS (Aria II, BD Biosciences) using anti-CD31, CD45, Sca-1, PDGFR and VCAM1 antibodies. FAPs were identified as Sca1/PDGFR-positive and CD31-, CD45- and VCAM1-negative cells ([Uezumi et al., 2010]). SCs were identified as VCAM1-positive and CD31-, CD45-, Sca-1 and PDGFR-negative cells ([Liu et al., 2015]).\n(§2) All experiments were performed in incubators at 37 °C, 3% O2 and 5% CO2. Senescence was induced by treatment with either Doxo (250 nM for 24 h) ([Demaria et al., 2017]) or X-irradiation (10 Gy) ([Limbad et al., 2020]). For cell culture studies using 25HC, it was used at the indicated concentrations in the media.\n(§3) FAPs and SCs were cultured on Matrigel-coated dishes (BD Biosciences) in growth medium (GM) consisting of DMEM plus 10% FBS, 1% penicillin-streptomycin and 10% MyoCult (STEMCELL Technologies) for 7 days. Human myogenic cell HSMMs (Lonza) were maintained according to the manufacturer’s instructions with SkGM-2 medium (Lonza).\n(§4) Cell viability was assessed using a cell counting kit-8 from Dojindo Molecular Technologies, Inc (Cat CK04-20). Cells were incubated with culture media + 10% kit cell viability reagent, 150 μL/well in 96-well plates for 2 h. The supernatant was transferred to a new 96-well plate and absorbance read at 450 nm as recommended in the product datasheet."}, "[1]": {"test_system": "human skeletal muscle myoblasts (HSMMs)", "assay": "Cell viability assay (cell counting kit-8) of senescent and non-senescent HSMMs treated with inhibitors", "assay_type": "cell-based", "conditions": "for IC50: Homo sapiens, Myoblast, HSMM", "procedure": "as §1, §2, §3, §4"}, "[2]": {"test_system": "human liver stellate cells (hLSCs)", "assay": "Cell viability assay of NS and Doxo- or IR-induced senescent hLSCs treated with 25HC", "assay_type": "cell-based", "conditions": "100 μM after 3 days; Doxo or IR induced senescence", "procedure": "Figure 7 25HC treatment timeline and its effects on NS and SEN hCMECs, hLSCs, hRPTECs, and hACs All cell types were treated with either DMSO, 250 nM Doxo or 10-Gy IR at the times shown. 25HC treatment was started 24 h after Doxo or IR treatment. Cell viability was measured every 3–5 days for 15 days. Optimal treatment times for maximum senolysis are shown for each cell type: day 15 for hCMECs, day 3 for hLSCs, day 9 for hRPTECs and day 12 for hACs. For qRT-PCR: mean ± SE, n =4, ∗p< 0.05, ∗∗p< 0.01, ∗∗∗p<0.001, ∗∗∗∗p<0.0001 by Dunnett’s multiple comparisons test vs DMSO or NS, For cell viability assays: mean ± SE, n =3, ∗∗p< 0.01, ∗∗∗p<0.001, ∗∗∗∗p<0.0001 vs 0 mM by student’s t test.\nAll experiments were performed in incubators at 37 °C, 3% O2 and 5% CO2. Senescence was induced by treatment with either Doxo (250 nM for 24 h) ([Demaria et al., 2017]) or X-irradiation (10 Gy) ([Limbad et al., 2020]). […]\nCell viability was assessed using a cell counting kit-8 from Dojindo Molecular Technologies, Inc (Cat CK04-20). […] The supernatant was transferred to a new 96-well plate and absorbance read at 450 nm as recommended in the product datasheet. […]\nCells were treated with either DMSO or 250 nM Doxo for 24 h. […] Cell viability was measured every 3-–5 days until 15 days.\n(b) 25HC effects on NS or IR-treated hLSCs at vari ous ti mes. […] Cell viability was measured every 3–5 days until 15 days. […]"}, "gastrocnemius muscle": {"test_system": "gastrocnemius muscle", "conditions": "ip, 50 mg/kg, 120 h"}, "SARS-CoV-2": {"test_system": "SARS-CoV-2", "design": "method as in Wang et al., 2020; Zang et al., 2020; Zu et al., 2020", "conditions": "by depleting membrane cholesterol, ref Wang et al., 2020, Zang et al., Zu et al.; cited from earlier work"}}}
{"smiles": "C[C@H](CCCC(C)(C)O)[C@H]1CC[C@H]2[C@@H]3CC=C4C[C@@H](O)CC[C@]4(C)[C@H]3CC[C@]12C", "note": "[25HC, 25-hydroxycholesterol]", "values": [{"measurement": "viability of senescent versus non-senescent SCs", "setting": "SCs; Doxo-induced senescence, viability on day 5", "value": "decreased the viability of senescent SCs"}, {"measurement": "IC50", "setting": "SCs; Mus musculus, 168 h, SCs, 7 days in culture", "value": 3.7, "unit": "µM"}, {"measurement": "viability of senescent versus non-senescent HSMMs", "setting": "[1]; Doxo-induced senescence, viability on day 3", "value": "significantly decreased cell viability"}, {"measurement": "IC50", "setting": "[1]; 72 h, 3 days in culture", "value": 7.2, "unit": "µM"}, {"measurement": "IC50", "setting": "[1]; 168 h, 7 days in culture", "value": 3.7, "unit": "µM"}, {"measurement": "senolysis in hLSCs", "setting": "[2]", "value": "induced significant senolysis"}, {"measurement": "muscle mass restored (gastrocnemius wet weight normalized to body weight)", "setting": "gastrocnemius muscle", "value": "~23", "unit": "%"}, {"measurement": "SARS-CoV-2 replication", "setting": "SARS-CoV-2", "value": "inhibits SARS-CoV-2 replication"}]}
